Patent US10004701B2, “Methods and compositions for treating infection” (UNIVERSITY OF ROCHESTER, priority 2012, dated 2018)
Counter-ions that a name gives are not always drawn. Like-named read-outs stand apart in the source and are kept apart here.

How the values were obtained:
Assay in all cases: AK assay 384-well format, Prestwick library screening
E. cloacae = type: cell-based, Enterobacter cloacae; settings: 50 μM final drug concentration; for fold induction at 50 µM: Enterobacter cloacae, 3 h
E. faecium = type: cell-based, Enterococcus faecium; settings: 50 μM final drug concentration; for fold induction at 50 µM: Enterococcus faecium, 3 h
[1] = system: A. baumannii strain 98-37-09; type: cell-based, Acinetobacter baumannii; settings: 50 μM final drug concentration; for fold induction at 50 µM: Acinetobacter baumannii, 983709, 3 h
P. aeruginosa = type: cell-based, Pseudomonas aeruginosa; settings: 50 μM final drug concentration; for fold induction at 50 µM: Pseudomonas aeruginosa, 3 h
E. coli = type: cell-based, Escherichia coli; settings: 50 μM final drug concentration; for fold induction at 50 µM: Escherichia coli, 3 h
K. pneumoniae = type: cell-based, Klebsiella pneumoniae; settings: 50 μM final drug concentration; for fold induction at 50 µM: Klebsiella pneumoniae, 3 h
[2] = system: S. aureus strain USA300-0114; type: cell-based, Staphylococcus aureus; settings: 50 μM final drug concentration; for fold induction at 50 µM: Staphylococcus aureus, USA300, 3 h
[3] = planktonic E. cloacae, cutoff for positive-scoring molecules 3-fold increase, read-out: AK-based Prestwick Library Screening Results, E. cloacae (increase in extracellular AK activity)
[4] = planktonic E. faecium, cutoff for positive-scoring molecules 3-fold increase, read-out: AK-based Prestwick Library Screening Results, E. faecium (increase in extracellular AK activity)
[5] = planktonic A. baumannii, cutoff for positive-scoring molecules 3-fold increase, read-out: AK-based Prestwick Library Screening Results, A. baumannii (increase in extracellular AK activity)
[6] = planktonic P. aeruginosa, cutoff for positive-scoring molecules 3-fold increase, read-out: AK-based Prestwick Library Screening Results, P. aeruginosa (increase in extracellular AK activity)
[7] = planktonic E. coli, cutoff for positive-scoring molecules 3-fold increase, read-out: AK-based Prestwick Library Screening Results, E. coli (increase in extracellular AK activity)
[8] = planktonic K. pneumoniae, cutoff for positive-scoring molecules 3-fold increase, read-out: AK-based Prestwick Library Screening Results, K. pneumoniae (increase in extracellular AK activity)
[9] = planktonic S. aureus, cutoff for positive-scoring molecules 3-fold increase, read-out: AK-based Prestwick Library Screening Results, S. aureus (increase in extracellular AK activity)
[10] = planktonic E. cloacae, […], read-out: AK-based Prestwick Library Screening Results, E. cloacae (increase in extracellular AK activity)
[11] = planktonic E. faecium, […], read-out: AK-based Prestwick Library Screening Results, E. faecium (increase in extracellular AK activity)
[12] = planktonic A. baumannii, […], read-out: AK-based Prestwick Library Screening Results, A. baumannii (increase in extracellular AK activity)
[13] = planktonic P. aeruginosa, […], read-out: AK-based Prestwick Library Screening Results, P. aeruginosa (increase in extracellular AK activity)
[14] = planktonic E. coli, […], read-out: AK-based Prestwick Library Screening Results, E. coli (increase in extracellular AK activity)
[15] = planktonic K. pneumoniae, […], read-out: AK-based Prestwick Library Screening Results, K. pneumoniae (increase in extracellular AK activity)
[16] = planktonic S. aureus, […], read-out: AK-based Prestwick Library Screening Results, S. aureus (increase in extracellular AK activity)
[17] = planktonic E. cloacae, positive cutoff 3-fold increase, read-out: AK-based Prestwick library screening result, E. cloacae (fold increase in extracellular AK activity)
[18] = planktonic E. faecium, positive cutoff 3-fold increase, read-out: AK-based Prestwick library screening result, E. faecium (fold increase in extracellular AK activity)
[19] = planktonic A. baumannii, positive cutoff 3-fold increase, read-out: AK-based Prestwick library screening result, A. baumannii (fold increase in extracellular AK activity)
[20] = planktonic P. aeruginosa, positive cutoff 3-fold increase, read-out: AK-based Prestwick library screening result, P. aeruginosa (fold increase in extracellular AK activity)
[21] = planktonic E. coli, positive cutoff 3-fold increase, read-out: AK-based Prestwick library screening result, E. coli (fold increase in extracellular AK activity)
[22] = planktonic K. pneumoniae, positive cutoff 3-fold increase, read-out: AK-based Prestwick library screening result, K. pneumoniae (fold increase in extracellular AK activity)
[23] = planktonic S. aureus, positive cutoff 3-fold increase, read-out: AK-based Prestwick library screening result, S. aureus (fold increase in extracellular AK activity)
[24] = planktonic, cutoff for positive-scoring molecules 3-fold increase, read-out: AK-based Prestwick Library Screening Results, E. cloacae (fold increase in extracellular AK activity)
[25] = planktonic, cutoff for positive-scoring molecules 3-fold increase, read-out: AK-based Prestwick Library Screening Results, E. faecium (fold increase in extracellular AK activity)
[26] = planktonic, cutoff for positive-scoring molecules 3-fold increase, read-out: AK-based Prestwick Library Screening Results, A. baumannii (fold increase in extracellular AK activity)
[27] = planktonic, cutoff for positive-scoring molecules 3-fold increase, read-out: AK-based Prestwick Library Screening Results, P. aeruginosa (fold increase in extracellular AK activity)
[28] = planktonic, cutoff for positive-scoring molecules 3-fold increase, read-out: AK-based Prestwick Library Screening Results, E. coli (fold increase in extracellular AK activity)
[29] = planktonic, cutoff for positive-scoring molecules 3-fold increase, read-out: AK-based Prestwick Library Screening Results, K. pneumoniae (fold increase in extracellular AK activity)
[30] = planktonic, cutoff for positive-scoring molecules 3-fold increase, read-out: AK-based Prestwick Library Screening Results, S. aureus (fold increase in extracellular AK activity)

CCOC(=O)n1ccn(C)c1=S [Carbimazole]
fold induction at 50 µM (E. cloacae; [3]): 1.2
fold induction at 50 µM (E. faecium; [4]): 0.9
fold induction at 50 µM [1, 5]: 0.8
fold induction at 50 µM (P. aeruginosa; [6]): 0.7
fold induction at 50 µM (E. coli; [7]): 0.8
fold induction at 50 µM (K. pneumoniae; [8]): 0.7
fold induction at 50 µM [2, 9]: 0.6

NCCC(=O)NCCc1c[nH]cn1 [Carcinine]
fold induction at 50 µM (E. cloacae; [10]): 0.8
fold induction at 50 µM (E. faecium; [11]): 0.9
fold induction at 50 µM [1, 12]: 0.8
fold induction at 50 µM (P. aeruginosa; [13]): 0.8
fold induction at 50 µM (E. coli; [14]): 0.8
fold induction at 50 µM (K. pneumoniae; [15]): 0.6
fold induction at 50 µM [2, 16]: 0.7

CCCC(C)(COC(N)=O)COC(=O)NC(C)C (stereo not drawn) [Carisoprodol]
fold induction at 50 µM (E. cloacae; [10]): 0.8
fold induction at 50 µM (E. faecium; [11]): 0.9
fold induction at 50 µM [1, 12]: 0.8
fold induction at 50 µM (P. aeruginosa; [13]): 0.9
fold induction at 50 µM (E. coli; [14]): 0.9
fold induction at 50 µM (K. pneumoniae; [15]): 0.6
fold induction at 50 µM [2, 16]: 0.7

CC(C)(C)NCC(O)COc1cccc2c1CCC(=O)N2 (stereo not drawn) [Carteolol hydrochloride]
fold induction at 50 µM (E. cloacae; [3]): 1.1
fold induction at 50 µM (E. faecium; [4]): 1
fold induction at 50 µM [1, 5]: 1
fold induction at 50 µM (P. aeruginosa; [6]): 1.1
fold induction at 50 µM (E. coli; [7]): 1.2
fold induction at 50 µM (K. pneumoniae; [8]): 0.8
fold induction at 50 µM [2, 9]: 1.1

CCC1=C[C@@H]2CN3CCc4c([nH]c5ccccc45)[C@@](C(=O)OC)(C2)[C@@H]13 [Catharanthine]
AK-based Prestwick Library Screening Results, E. cloacae (increase in extracellular AK activity) (E. cloacae; 384-well format, […]): 1.0
AK-based Prestwick Library Screening Results, E. faecium (increase in extracellular AK activity) (E. faecium; 384-well format, […]): 1.0
AK-based Prestwick Library Screening Results, A. baumannii (increase in extracellular AK activity) ([1]; 384-well format, […]): 0.8
AK-based Prestwick Library Screening Results, P. aeruginosa (increase in extracellular AK activity) (P. aeruginosa; 384-well format, […]): 0.7
AK-based Prestwick Library Screening Results, E. coli (increase in extracellular AK activity) (E. coli; 384-well format, […]): 1.0
AK-based Prestwick Library Screening Results, K. pneumoniae (increase in extracellular AK activity) (K. pneumoniae; 384-well format, […]): 0.8
AK-based Prestwick Library Screening Results, S. aureus (increase in extracellular AK activity) ([2]; 384-well format, […]): 0.8

N[C@@H](C(=O)N[C@@H]1C(=O)N2C(C(=O)O)=C(Cl)CS[C@H]12)c1ccccc1 [Cefaclor]
fold induction at 50 µM (E. cloacae; [3]): 0.7
fold induction at 50 µM (E. faecium; [4]): 0.9
fold induction at 50 µM [1, 5]: 1.5
fold induction at 50 µM (P. aeruginosa; [6]): 0.5
fold induction at 50 µM (E. coli; [7]): 10.7
fold induction at 50 µM (K. pneumoniae; [8]): 2.5
fold induction at 50 µM [2, 9]: 0.5

CC1=C(C(=O)O)N2C(=O)[C@@H](NC(=O)[C@H](N)c3ccc(O)cc3)[C@H]2SC1 [Cefadroxil]
fold induction at 50 µM (E. cloacae; [3]): 1.2
fold induction at 50 µM (E. faecium; [4]): 0.8
fold induction at 50 µM [1, 5]: 0.9
fold induction at 50 µM (P. aeruginosa; [6]): 0.8
fold induction at 50 µM (E. coli; [7]): 0.9
fold induction at 50 µM (K. pneumoniae; [8]): 0.8
fold induction at 50 µM [2, 9]: 0.5

NC(=O)c1cc[n+](CC2=C(C(=O)[O-])N3C(=O)[C@@H](NC(=O)Cc4cccs4)[C@H]3SC2)cc1 [Cefalonium]
fold induction at 50 µM (E. cloacae; [17]): 1.4
fold induction at 50 µM (E. faecium; [18]): 0.9
fold induction at 50 µM [1, 19]: 1.5
fold induction at 50 µM (P. aeruginosa; [20]): 0.8
fold induction at 50 µM (E. coli; [21]): 16.6
fold induction at 50 µM (K. pneumoniae; [22]): 3.8
fold induction at 50 µM [2, 23]: 1.6

Cn1nnnc1SCC1=C(C(=O)O)N2C(=O)[C@@H](NC(=O)[C@H](O)c3ccccc3)[C@H]2SC1 [Cefamandole sodium salt]
fold induction at 50 µM (E. cloacae; [24]): 0.9
fold induction at 50 µM (E. faecium; [25]): 0.9
fold induction at 50 µM [1, 26]: 0.6
fold induction at 50 µM (P. aeruginosa; [27]): 0.7
fold induction at 50 µM (E. coli; [28]): 10.5
fold induction at 50 µM (K. pneumoniae; [29]): 2.3
fold induction at 50 µM [2, 30]: 1.3

Cc1nnc(SCC2=C(C(=O)O)N3C(=O)[C@@H](NC(=O)Cn4cnnn4)[C@H]3SC2)s1 [Cefazolin sodium salt]
fold induction at 50 µM (E. cloacae; [24]): 0.9
fold induction at 50 µM (E. faecium; [25]): 0.9
fold induction at 50 µM [1, 26]: 0.5
fold induction at 50 µM (P. aeruginosa; [27]): 0.7
fold induction at 50 µM (E. coli; [28]): 16.5
fold induction at 50 µM (K. pneumoniae; [29]): 3.6
fold induction at 50 µM [2, 30]: 3.1

CO/N=C(\C(=O)N[C@@H]1C(=O)N2C(C(=O)O)=C(C[N+]3(C)CCCC3)CS[C@H]12)c1csc(N)n1 [Cefepime hydrochloride]
fold induction at 50 µM (E. cloacae; [17]): 1.9
fold induction at 50 µM (E. faecium; [18]): 1
fold induction at 50 µM [1, 19]: 3.4
fold induction at 50 µM (P. aeruginosa; [20]): 15.6
fold induction at 50 µM (E. coli; [21]): 19.3
fold induction at 50 µM (K. pneumoniae; [22]): 4.9
fold induction at 50 µM [2, 23]: 3.1

C=CC1=C(C(=O)O)N2C(=O)[C@@H](NC(=O)/C(=N\OCC(=O)O)c3csc(N)n3)[C@H]2SC1 [Cefixime]
fold induction at 50 µM (E. cloacae; planktonic, cutoff for positive 3-fold increase, read-out: AK-based Prestwick Library Screening Results, E. cloacae (fold increase in extracellular AK activity)): 21.9
fold induction at 50 µM (E. faecium; planktonic, cutoff for positive 3-fold increase, read-out: AK-based Prestwick Library Screening Results, E. faecium (fold increase in extracellular AK activity)): 1.1
fold induction at 50 µM ([1]; planktonic, cutoff for positive 3-fold increase, read-out: AK-based Prestwick Library Screening Results, A. baumannii (fold increase in extracellular AK activity)): 1.8
fold induction at 50 µM (P. aeruginosa; planktonic, cutoff for positive 3-fold increase, read-out: AK-based Prestwick Library Screening Results, P. aeruginosa (fold increase in extracellular AK activity)): 11.7
fold induction at 50 µM (E. coli; planktonic, cutoff for positive 3-fold increase, read-out: AK-based Prestwick Library Screening Results, E. coli (fold increase in extracellular AK activity)): 18.6
fold induction at 50 µM (K. pneumoniae; planktonic, cutoff for positive 3-fold increase, read-out: AK-based Prestwick Library Screening Results, K. pneumoniae (fold increase in extracellular AK activity)): 4.6
fold induction at 50 µM ([2]; planktonic, cutoff for positive 3-fold increase, read-out: AK-based Prestwick Library Screening Results, S. aureus (fold increase in extracellular AK activity)): 1.2
